# In patent publication US12612403B2, “Nitrogen-containing heterocyclic derivative inhibitor, and preparation method therefor and use thereof” (SHANGHAI HANSOH BIOMEDICAL CO., LTD., priority 2024, dated 2026):
# How the values were obtained:
# [1] = system: PCSK9 secreted by HepG2 cells; experiment: Effect on the concentration of PCSK9 secreted by HepG2 cells (ELISA); format: cell-based; conditions: Homo sapiens, 48 hours, PCSK9 in culture medium by ELISA
# Description: 1. Experimental objective: To detect the inhibitory effect of the compounds on PCSK9.
# 2. Experimental method: • 1) HepG2 cell strain was cultured in the complete culture medium at 37° C., 5% CO2 to 70-90% confluence. • 2) The cells were digested and resuspended in the experimental culture medium, inoculated at 25,000 cells/well/200 μL in a 96-well cell culture plate, and cultured at 37° C. and 5% CO2 for 20-24 hours. • 3) The culture medium was removed from the cell culture plate, and the cell culture plate was washed once by adding 200 ul of the experimental culture medium to each well. • 4) Preparation of positive control compound and compound to be tested: the positive control compound and the compound to be tested were diluted on the compound plate. • 5) The diluted compound was added to the cell culture plate at 250 μL per well and incubated at 37° C. and 5% CO2 for 48 hours. • 6) The cell culture medium was collected at 200 μL per well and cryopreserved at −80° C. for later use. • 7) A sample of the cell culture medium was taken from the −80° C. cryopreservation condition, dissolved, vortexed, and centrifuged for later use. • 8) Preparation of standard curve: corresponding volumes of Dilution buffer were successively added to respective standard tubes, and in the order of the concentrations of 10, 5, 2.5, 1.25, 0.625, 0.313, 0.16, 0 ng/mL, the standard was diluted in series by taking the corresponding volume from the original tube or the last concentration tube. • 9) Preparation of washing liquid: 10x Wash buffer was diluted into 1x with Milli-Q for later use. • 10) According to the standard curve wells and sample wells set according to a plate map, 100 μL/well of the corresponding standards and culture medium samples were added to the wells, with 2 replicate wells. A self-adhesive seal was applied, the plate was placed on a plate shaker at room temperature, gently shaken, uniformly mixed, and incubated for 1 hour. • 11) The plate was placed on the plate washer, the washing liquid was set to 350 μL per well, and the plate was washed 4 times repeatedly. • 12) 100 μL/well of an HRP-conjugated detection antibody was added, a self-adhesive seal was applied, and the plate was placed on the plate shaker, well mixed uniformly, and incubated for 1 hour. • 13) The plate was placed on the plate washer, the washing liquid was set to 350 μL per well, and the plate was washed 4 times repeatedly. • 14) 100 μL/well of Substrate reagent was added, and the plate was placed in the dark, applied with a self-adhesive seal, placed on the plate shaker, well mixed uniformly, and incubated for 10-20 minutes. • 15) 100 μL of Stop solution (1N H2SO4) was added to each well and mixed uniformly. • 16) The optical density (OD) value in each well was measured in sequence at a wavelength of 450 nm by the microplate reader. Detection was carried out within 30 min after the reaction was stopped.
# 3. Experimental data processing method: After the OD values were read by the microplate reader, the OD value of the 0-concentration standard in the standard group was subtracted from the OD values of the standards, control group, and samples to obtain the actual OD values for these wells. A standard curve was plotted with Graphpad and the concentration of the sample was calculated. If the dilution was performed during the sample detection, the calculated sample concentration was necessarily multiplied by the corresponding dilution ratio in the final calculation, which was the actual concentration of the sample. Inhibition rate=(actual concentration in control−actual concentration in sample)/actual concentration in control*100. According to the inhibition rates corresponding to the different concentrations, IC50 was derived by Graphpad.
# [2] = Pharmacokinetic determination in mice (PO 5 mg/kg, IV 1 mg/kg); format: in vivo, C57BL/6J mice; conditions: male, C57BL/6J, mouse, plasma, C57 mice, PO administration, 5 mpk
# Description: 1. Experimental objective: C57BL/6J mice were used as test animals to study the pharmacokinetic behavior of the compounds of the present disclosure in mice (plasma) after oral and intravenous administration.
# 2.2 Test animals: C57 mice, male, purchased from Shanghai Bk Lab Animal Co., Ltd., with animal production license number (SCXK (Shanghai) 2013-0006 N0.311620400001794).
# 2.3 Drug preparation: Preparation of oral drug: 10% Solutol HS15
# 10 g of Solutol HS15 solid was weighed, dissolved in 90 mL of pure water, uniformly mixed, stirred, and ultrasonically treated to form a clear solution. The compound of the present disclosure was weighed and dissolved in this solution, uniformly shaken, and ultrasonically treated for 15 minutes to obtain a colorless clear solution with a concentration of 0.5 mg/mL. Preparation of intravenous drug: 5% DMSO+10% Solutol HS15+85% PBS, the compound of the present disclosure was weighed, 5% DMSO was first added on the basis of the proportion relative to the total volume of administration, and the mixture was vortexed and ultrasonically treated for 2 min until it was completely dissolved; 10% of Solutol HS15 was then added, and the mixture was vortexed and ultrasonically treated for 2 min until it was completely dissolved; and finally, 85% of PBS was added, and the mixture was vortexed, ultrasonically treated for 5 min, and filtered through a 0.22 um filter membrane to obtain a colorless and transparent clear solution with a concentration of 0.2 mg/mL.
# 2.4 Administration: 3 male C57 mice were fasted overnight and then respectively administered PO at a dose of 5 mg/kg and a volume of 10 mL/kg. 3 male C57 mice were fasted overnight and then respectively administered IV at a dose of 1 mg/kg and a volume of 5 mL/kg.
# 2.5 Sample collection: Before and after administration of mice, 0.04 mL of blood was collected from the orbit at 0.083 (iv), 0.25, 0.5, 1, 2, 4, 8, and 24 hours, and placed in EDTA-K2 test tubes, which was centrifuged at 6000 rpm at 4° C. for 6 min to separate plasma which was stored at −80° C.; and the […] were fed 4 h after administration.
# 2.6 Determination results: The final determination results were obtained by using an LCMS/MS method.
# 3. Experimental results: The main pharmacokinetic parameters were calculated using WinNonlin 6.1.
# PCSK9 protein = target: T1, PCSK9 protein (Homo sapiens, UniProt Q8NBP7); experiment: Binding ability to PCSK9 protein (HTRF); conditions: PCSK9-His, Alexa Fluor 647 probe compound
# T1 construct: purchased Sino biology (Sino Biological) 29698-H08H
# Description: 1. Experimental objective: To detect the action of compounds to bind PCSK9 protein by an HTRF method.
# 3. Experimental data processing method: Four-parameter log(inhibitor) vs. response—Variable slope (four parameters) in XLit was used to perform non-linear fitting of the compound concentration and the corresponding inhibition rate, and IC50 was calculated.
# T1 sequence (Q8NBP7 153-692): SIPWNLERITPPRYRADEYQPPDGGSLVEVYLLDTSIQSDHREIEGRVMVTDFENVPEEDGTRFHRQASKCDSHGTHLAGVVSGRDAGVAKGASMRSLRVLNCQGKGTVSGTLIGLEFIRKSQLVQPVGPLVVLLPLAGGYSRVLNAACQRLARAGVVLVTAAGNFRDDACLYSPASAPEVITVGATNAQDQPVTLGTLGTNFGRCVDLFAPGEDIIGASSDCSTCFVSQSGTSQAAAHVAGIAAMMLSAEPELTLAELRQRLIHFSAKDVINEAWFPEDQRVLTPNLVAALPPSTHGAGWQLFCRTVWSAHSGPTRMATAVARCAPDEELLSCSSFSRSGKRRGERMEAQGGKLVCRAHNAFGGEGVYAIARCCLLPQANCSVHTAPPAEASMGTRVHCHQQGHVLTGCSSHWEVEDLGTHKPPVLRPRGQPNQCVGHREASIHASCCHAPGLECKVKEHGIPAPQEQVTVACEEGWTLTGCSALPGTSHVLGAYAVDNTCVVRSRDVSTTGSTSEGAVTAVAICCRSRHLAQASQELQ
Compound,IC50 [1] [µM],further results
O=C1c2cccc(C(F)(F)F)c2CN1c1ccc(N[C@H]2CC[C@H](Nc3nc4cc(F)ccn4n3)C2)nc1 [Example 26],22.8,
"O=C1c2ncc(F)cc2CN1c1ccc(N[C@H]2CC[C@H](Nc3nc4cc(C(F)(F)F)ccn4n3)C2)nc1 [Example 27, 3-Fluoro-6-(6-(((1S,3S)-3-((7-(trifluoromethyl)-[1,2,4]triazolo[1,5-a]pyridin-2-yl)amino)cyclopentyl)amino)pyridin-3-yl)-5,6-dihydro-7H-pyrrolo[3,4-b]pyridin-7-one]",12,
"CC(C)(C)c1ccc2c(n1)C(=O)N(c1ccc(N[C@H]3CC[C@H](Nc4nc5cc(F)ccn5n4)C3)nc1)C2 [Example 49, 2-(Tert-butyl)-6-(6-(((1S,3S)-3-((7-fluoro-[1,2,4]triazolo[1,5-a]pyridin-2-yl)amino)cyclopentyl)amino)pyridin-3-yl)-5,6-dihydro-7H-pyrrolo[3,4-b]pyridin-7-one]",2.7,
"Cc1cc2c(c(C)n1)CN(c1ccc(N[C@H]3CC[C@H](Nc4nc5cc(F)ccn5n4)C3)nc1)C2=O [Example 51, 2-(6-(((1S,3S)-3-((7-fluoro-[1,2,4]triazolo[1,5-a]pyridin-2-yl)amino)cyclopentyl)amino)pyridin-3-yl)-4,6-dimethyl-2,3-dihydro-1H-pyrrolo[3,4-c]pyridin-1-one]",21.3,
"O=C1N(c2ccc(N[C@H]3CC[C@H](Nc4nc5cc(F)ccn5n4)C3)nc2)CCC12CC2 [Example 54, 5-(6-(((1S,3S)-3-((7-fluoro-[1,2,4]triazolo[1,5-a]pyridin-2-yl)amino)cyclopentyl)amino)pyridin-3-yl)-5-azaspiro[2.4]heptan-4-one]",23.4,
"Cc1nccc2c1CN(c1ccc(N[C@H]3CC[C@H](Nc4nc5cc(C(F)(F)F)ccn5n4)C3)nc1)C2=O [Example 57, 4-methyl-2-(6-(((1S,3S)-3-((7-(trifluoromethyl)-[1,2,4]triazolo[1,5-a]pyridin-2-yl)amino)cyclopentyl)amino)pyridin-3-yl)-2,3-dihydro-1H-pyrrolo[3,4-c]pyridin-1-one]",1.7,
"O=C1N(c2ccc(N[C@H]3CC[C@H](Nc4nc5cc(C(F)(F)F)ccn5n4)C3)nc2)CCC12CC2 [Example 58, 5-(6-(((1S,3S)-3-((7-(trifluoromethyl)-[1,2,4]triazolo[1,5-a]pyridin-2-yl)amino)cyclopentyl)amino)pyridin-3-yl)-5-azaspiro[2.4]heptan-4-one]",11.1,
Cc1cccnc1C(=O)Nc1ccc(N[C@H]2CC[C@H](Nc3nc4cc(C(F)(F)F)ccn4n3)C2)nc1 [Example 60],27.4,
"O=C1c2cc(F)cnc2CN1c1ccc(N[C@H]2CC[C@H](Nc3nc4cc(C(F)(F)F)ccn4n3)C2)nc1 [Example 61, 3-fluoro-6-(6-(((1S,3S)-3-((7-(trifluoromethyl)-[1,2,4]triazolo[1,5-a]pyridin-2-yl)amino)cyclopentyl)amino)pyridin-3-yl)-6,7-dihydro-5H-pyrrolo[3,4-b]pyridin-5-one]",0.6,
"CN(Cc1ccc(N[C@H]2CC[C@H](Nc3nc4cc(C(F)(F)F)ccn4n3)C2)nc1)C(=O)c1ccccn1 [Example 62, N-methyl-N-(6-(((1S,3S)-3-((7-(trifluoromethyl)-[1,2,4]triazolo[1,5-a]pyridin-2-yl)amino)cyclopentyl)amino)pyridin-3-yl)methylpicolinamide]",17.6,
"CC(C)(O)c1cccn(-c2ccc(N[C@H]3CC[C@H](Nc4nc5cc(C(F)(F)F)ccn5n4)C3)nc2)c1=O [Example 63, 3-(2-hydroxypropan-2-yl)-6′-(((1S,3S)-3-((7-(trifluoromethyl)-[1,2,4]triazolo[1,5-a]pyridin-2-yl)amino)cyclopentyl)amino)-2H-[1,3′-bipyridine]-2-one]",26.5,
"N#Cc1cc2c(cn1)CN(c1ccc(N[C@H]3CC[C@H](Nc4nc5cc(C(F)(F)F)ccn5n4)C3)nc1)C2=O [Example 66, 1-carbonyl-2-(6-(((1S,3S)-3-((7-(trifluoromethyl)-[1,2,4]triazolo[1,5-a]pyridin-2-yl)amino)cyclopentyl)amino)pyridin-3-yl)-2,3-dihydro-1H-pyrrolo[3,4-c]pyridine-6-carbonitrile]",0.8,
"Cc1ccc2c(n1)CN(c1ccc(N[C@H]3CC[C@H](Nc4nc5cc(C(F)(F)F)ccn5n4)C3)nc1)C2=O [Example 67, 2-methyl-6-(6-(((1S,3S)-3-((7-(trifluoromethyl)-[1,2,4]triazolo[1,5-a]pyridin-2-yl)amino)cyclopentyl)amino)pyridin-3-yl)-6,7-dihydro-5H-pyrrolo[3,4-b]pyridin-5-one]",17.1,
"O=c1[nH]cccc1-c1ccc(N[C@H]2CC[C@H](Nc3nc4cc(C(F)(F)F)ccn4n3)C2)nc1 [Example 73, 6′-(((1S,3S)-3-((7-(trifluoromethyl)-[1,2,4]triazolo[1,5-a]pyridin-2-yl)amino)cyclopentyl)amino)-[3,3′-bipyridine]-2(1H)-one]",14.3,
"CC(C)(O)c1ccn(-c2ccc(N[C@H]3CC[C@H](Nc4nc5cc(C(F)(F)F)ccn5n4)C3)nc2)c(=O)c1 [Example 81, 4-(2-hydroxypropan-2-yl)-6′-(((1S,3S)-3-((7-(trifluoromethyl)-[1,2,4]triazolo[1,5-a]pyridin-2-yl)amino)cyclopentyl)amino)-2H-[1,3′-bipyridine]-2-one]",26.5,
Cc1ccc2c(n1)CN(c1ccc(N[C@H]3CC[C@H](Nc4nc5cc(OC(F)F)ccn5n4)C3)nc1)C2=O [Example 131],,AUC(0-inf) ([2]; read-out: Area under the curve AUC0-∞): 22400 ng·h/mL; half-life ([2]; read-out: Half-life t1/2 (converted)): 3.4 h; MRT ([2]; read-out: Mean residence time MRT): 2.7 h; Cmax ([2]; read-out: Plasma concentration Cmax): 7170 ng/mL; Tmax ([2]; read-out: Time to peak tmax): 0.5 h; IC50 (PCSK9 protein): 0.0067 µM
